Paper PMC4601023, “Novel anticancer agent, SQAP, binds to focal adhesion kinase and modulates its activity” (Scientific Reports, 2015)

Columns and labels:
FAK (910–1052) = target: T1, FAK (910–1052) (Homo sapiens, UniProt Q05397); test: SPR analysis, immobilized His-tagged FAK (910-1052); type: binding; details: Biacore 3000, CM5 chip, 25 °C, read-out: dissociation constant (KD) for FAK
T1 construct: For FAK (910–1052) DNA was amplified; made in house; host or cells: E. coli BL21 (DE3)
From the text: SPR was utilized as an independent confirmation of the kinetic parameters between SQAP and the putative binding proteins. […] The recombinant proteins were then expressed in Escherichia coli and purified to homogeneity. In addition, full length, His-tagged ADRM1 and GST-tagged HR23B (GST-HR23B) were also used. The proteins were first immobilized on a CM5 sensor chip of the SPR biosensor (Biacore 3000). For GST-HR23B analysis, a GST protein was additionally immobilized and used as a control in order to eliminate possible nonspecific binding of SQAP. SQAP samples at different concentrations were then injected over the proteins immobilized on the sensor chip. As a negative control we used sulfoquynovosylpropanediol (SQP), which lacks the fatty acid moiety of SQAP (Fig. 1). […]
The binding kinetics of SCP-2, MFE-2, ADRM1, HR23B and FAK with SQAP and SQP were analyzed on a Biacore 3000 instrument (GE Healthcare, Little Chalfont, UK). […] The buffer of purified peptides was exchanged to HBS-P (150 mM NaCl, 0.005% Surfactant P20, 10 mM HEPES-NaOH pH 7.4) using a PD 10 column (GE Healthcare, Little Chalfont, UK) and the concentrations were quantified using DC protein assay kit (Bio-Rad Laboratories, Hercules, CA, USA). […] Kinetic parameters were determined by analyzing the data using BIAevaluation 4.1 software (GE Healthcare, Little Chalfont, UK).

[1] = tested on: Akt phosphorylation at S473 in HUVEC; test: Akt phosphorylation in HUVEC, Western blotting; type: cell-based, human; details: treated for 21 h, 10 µM
From the text: Furthermore, we looked at FAK signaling pathway to validate our results. Paxillin binds to FAK 919–938 residues which is a sequence contained within the region where SQAP is predicted to bind. Binding between paxillin and FAK results in paxillin phosphorylation at Y118[35][36]. Thus, we examined paxillin phosphorylation. […] Additionally, we studied Akt phosphorylation at S473 on account of FAK is a known factor in control of Akt activity. We observed that Akt phosphorylation was diminished when treated with SQAP or SQMG for 21 h (see Supplementary Fig. S3).
Cells were harvested and solubilized in RIPA buffer (20 mM Tris-HCl, pH 7.5, 1% Sodium deoxycholate, 150 mM NaCl, 5 mM EDTA, 1% Triton X-100, 0.1% SDS, 0.1%, 1 mM PMSF, 1 mM vanadate and 1 μg/mL leupeptin). Protein quantification was determined using the DC protein assay kit (Bio-Rad, Hercules, CA, USA). A total of 15 μg of each protein sample were separated by SDS–PAGE gels and blotted onto polyvinylidene difluoride membranes (Merck, Kenilworth, NJ, US). After blocking for 1 h with Blocking-One (Nacalai Tesque, Kyoto, Japan), proteins were detected by incubating the membranes with the primary antibody at 4 °C overnight (anti-Y397 2:2000, anti-Y925 5:2000 and anti-FAK 0.5:2000) followed by incubation with horseradish peroxidase-conjugated secondary antibodies at room temperature for 1 h (anti-mouse 0.5:2000 and anti-rabbit 0.4:2000). […]

[2] = tested on: Akt phosphorylation at S473 in A549; test: Akt phosphorylation in A549, Western blotting; type: cell-based, human; details: A549, fibronectin, 1 h treatment
Method: Fibronectin is a glycoprotein located in the extracellular matrix that binds to integrins. […] A549 lung cancer cells have been used before for studying cell migration because of their metastatic model potential. A549 cells are also one of the tumor cell lines sensitive to SQMG[9]. Therefore, we studied the phosphorylation of FAK in A549 cells (Fig. 5C,D). SQAP could inhibit the phosphorylation of FAK at Y397 and Y925 after 1 h treatment in a dose dependent manner. […] We also examined paxillin and Akt phosphorylation in A549 as downstream targets of FAK. […] We hypothesize that SQAP diminish on Akt phosphorylation being more readily in A549 cancer cells than in HUVEC endothelial cells might be due to a higher Akt basal activity on cancer cells.
Cells were harvested and solubilized in RIPA buffer (20 mM Tris-HCl, pH 7.5, 1% Sodium deoxycholate, 150 mM NaCl, 5 mM EDTA, 1% Triton X-100, 0.1% SDS, 0.1%, 1 mM PMSF, 1 mM vanadate and 1 μg/mL leupeptin). Protein quantification was determined using the DC protein assay kit (Bio-Rad, Hercules, CA, USA). A total of 15 μg of each protein sample were separated by SDS–PAGE gels and blotted onto polyvinylidene difluoride membranes (Merck, Kenilworth, NJ, US). […]

HUVEC cells = test: WST-8 cell viability assay, HUVEC; type: cell-based, human; details: 17 h, SQAP 10 and 20 µM
Method: HUVEC and A549 cells were seeded into a 96-well culture plate (2 × 10^4 cells/well). The following day, cells were treated with SQAP or vehicle in a medium containing 1% FBS and VEGF (50 ng/mL) for 17 h (HUVEC) or fibronectin (10 μg/mL) for 46 h (A549). Cell viability was measured using Cell Count Reagent SF (Nacalai Tesque, Kyoto, Japan) following the manufacturer’s instructions. Briefly, 1/10 volume of the WST-8 solution was added to each well, and the plates were incubated at 37 °C for 1 h. Then, cell viability was determined colorimetrically by measuring OD450 using a microplate reader on a Wallac ARVO 5X microplate reader (Perkin Elmer, Waltham, MA, USA).
control SQAP 10 µM SQAP 20 µM
Livecellswere measured with SF reagent under similarconditionsas describedin thewound healing
assayinFig.5. (A)HUVEC and (B)A549 cells.
(also on this page, place not known: Cell viability (%) Cell viability (%) Live cells were similar conditions as described in the wound assay in Fig. 5. (A) HUVEC (B) A549)

T1 sequence (Q05397 910-1052): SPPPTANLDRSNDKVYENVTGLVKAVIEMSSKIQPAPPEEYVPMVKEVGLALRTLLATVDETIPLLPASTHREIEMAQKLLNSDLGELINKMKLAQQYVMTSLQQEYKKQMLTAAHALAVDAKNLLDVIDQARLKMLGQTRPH

## CCCCCCCCCCCCCCCCCC(=O)OCCCO[C@H]1O[C@H](CS(=O)(=O)O)[C@@H](O)[C@H](O)[C@H]1O [SQAP, sulfoquynovosylacylpropanediol]
FAK (910–1052)
  Kd: 3.24 µM
[1]
  Akt phosphorylation at S473: diminished
[2]
  Akt phosphorylation at S473: clearly downregulated
HUVEC cells
  cytotoxicity (WST-8 cell viability): noncytotoxic
